The source made the active and inactive calls. The rule behind the calls is not given here.

Results on three compounds are retold here after ChEMBL document CHEMBL5214990, “Novel Aryl Alkamidazole Derivatives as Multifunctional Antifungal Inhibitors: Design, Synthesis, and Biological Evaluation” (J Med Chem, 2022).

Data set [1] has as its system Cryptococcus neoformans. Briefly: Increase in intracellular ROS level in Cryptococcus neoformans assessed as fold increase in fluorescence intensity measured after 12 hrs by fluorescence microscopic analysis relative to control. Type of data set: functional.
The subject of data set [2] is Candida albicans. Description: Increase in intracellular ROS level in Candida albicans assessed as fold increase in fluorescence intensity measured after 12 hrs by fluorescence microscopic analysis relative to control. The class given is functional.
Data set [3] relates to Mus musculus. Description: Immunomodulatory activity in mouse infected with Candida albicans assessed as increase in expression intensity of CD8+ T cells in spleen at 20 mg/kg, ip administered on days 2,4,6,8,10,12 and measured on day 14 by immunohistochemical staining analysis relative to control. Type of data set: functional, T-cell. The following applies: time 13 day.
In data set [4] the test system is Mus musculus. Description: Immunomodulatory activity in mouse infected with Candida albicans assessed as increase in expression intensity of CD3+ T cells in spleen at 20 mg/kg, ip administered on days 2,4,6,8,10,12 and measured on day 14 by immunohistochemical staining analysis relative to control. Type of data set: functional, T-cell. The following applies: time 13 day.

Data set [5] in a line: Toxicity in mouse infected with Candida albicans assessed as morphological changes in heart at 20 mg/kg, ip administered on days 2,4,6,8,10,12 and measured on day 14 by hematoxyin-eosin staining based analysis. The following applies: in vivo, 312 h, time 13 day. The class given is organism-based.
Data set [6] deals with Candida albicans. Briefly: Induction of morphological changes in Candida albicans ATCC SC5314 assessed as rupturing of marginal regions measured after 96 hrs by transmission electron microscopy. Type of data set: functional, organism-based.
The subject of data set [7] is Candida albicans. Description: Induction of morphological changes in Candida albicans ATCC SC5314 assessed as fungal cells with irregular shrunken characteristics measured after 48 to 72 hrs by transmission electron microscopy. The note with it: time 48-72 hrs. Type of data set: functional, organism-based.
The test system of data set [8] is Candida albicans. Briefly: Induction of morphological changes in Candida albicans ATCC SC5314 assessed as exudation of fungal cell contents to the external region measured after 96 hrs by transmission electron microscopy. Type of data set: functional, organism-based.
In data set [9] the test system is Candida albicans. Description: Induction of morphological changes in Candida albicans ATCC SC5314 assessed as disintegration of fungal cell membrane and cell wall measured after 96 hrs by transmission electron microscopy. Type of data set: functional, organism-based.
Data set [10] has as its system Candida albicans. Description: Induction of morphological changes in Candida albicans ATCC SC5314 assessed as reduction in fungal cell thickness measured after 48 to 72 hrs by transmission electron microscopy. The class given is functional, organism-based. The note with it: time 48-72 hrs.
Data set [11] concerns Candida albicans. Description: Induction of morphological changes in Candida albicans ATCC SC5314 assessed as fungal cells with edema, cavitation, nuclear enrichment, accumulation of low density granular materials measured after 48 to 72 hrs by transmission electron microscopy. The class given is functional, organism-based. The note with it: time 48-72 hrs.

For the compound `OC(Cn1cncn1)(Cn1cncn1)c1ccc(F)cc1F` [FLUCONAZOLE], the outcome in [1] and in data set [2] was Active.

`C[C@H](C(=O)N(C)CC(O)(Cn1ccnc1)c1ccc(Cl)cc1)c1ccc(-c2ccccc2)c(F)c1` (some centres undefined): the “fold change (FC)” value in [3] and in data set [4] was 2.12 each time. Besides, in [5], the Activity entry is on record as “Non-Toxic”.

For `C[C@H](C(=O)N(C)CC(O)(Cn1ccnc1)c1ccc(Cl)cc1Cl)c1cccc(C(=O)c2ccccc2)c1` (some centres undefined), the result in data set [6], in data set [7], in data set [8], in data set [9], in [10] and in data set [11] was Active. Also, the “fold change (FC)” value in data set [3] and in [4] was 2.12 in each case. In [5], the Activity entry is reported as “Non-Toxic”.
